# Source: patent US4771046A, “Carbapenem derivatives” (Sankyo Company, Limited, priority 1985, dated 1988)
# Columns and labels:
# Enterobacter cloacae 963 = test: Minimum inhibitory concentration, agar plate dilution method; assay type: cell-based
# Excerpt: (§1) Table 2 sets out the activities of six of the compounds of the present invention against various bacteria, in terms of their minimal inhibitory concentrations (μg/ml). These compounds are identified by the same numbers as used in Table 1 above.
# (§2) Minimum Inhibitory Concentrations (μg/ml)
# (§3) In the compounds used in Table 2, compounds 1, 15 and 27 have the (5R,6S) configuration, and compounds 2, 16 and 28 have the (1R,5S,6S) configuration. In all six of the compounds, the configuration of the hydroxy group in the side-chain at position 6 is (1R).
# Escherichia coli 609 = test: as above; assay type: cell-based
# Excerpt: as §1, §2, §3
# Escherichia coli NIHJ = test: as above; assay type: cell-based
# Excerpt: as §1, §2, §3
# [1] = tested on: Klebsiella pneumoniae 806; test: as above; assay type: cell-based
# Excerpt: as §1, §2, §3
# [2] = tested on: Klebsiella pneumoniae 846; test: as above; assay type: cell-based
# Excerpt: as §1, §2, §3
# Proteus vulgaris 1420 = test: as above; assay type: cell-based
# Excerpt: as §1, §2, §3
# Salmonella enteritidis = test: as above; assay type: cell-based; conditions: Salmonella enterica
# Excerpt: as §1, §2, §3
# Serratia marcescens 1184 = test: as above; assay type: cell-based
# Excerpt: as §1, §2, §3
# [3] = tested on: Staphylococcus aureus 209P; test: as above; assay type: cell-based
# Excerpt: as §1, §2, §3
# Staphylococcus aureus 56 = test: as above; assay type: cell-based
# Excerpt: as §1, §2, §3
# mice = test: Toxicity in mice (survival); assay type: in vivo
# dehydropeptidase I = conditions: in vivo in mammals; cited from earlier work
# [4] = cited from earlier work
structure (smiles),measurement,setting,value
"C[C@@H](O)[C@H]1C(=O)N2C(C(=O)O)=C(SCC(=N)N3CCNC(=O)C3)C[C@H]12 [Compound No. 1, (5R,6S)-2-[2-(3-Oxopiperazin-1-yl)-2-iminoethylthio]-6-[(1R)-1-hydroxyethyl]-1-carbapen-2-em-3-carboxylic acid]",MIC,Enterobacter cloacae 963,0.8 µg/mL
same,MIC,Escherichia coli 609,0.4 µg/mL
same,MIC,Escherichia coli NIHJ,0.1 µg/mL
same,MIC,[1],0.2 µg/mL
same,MIC,[2],0.1 µg/mL
same,MIC,Proteus vulgaris 1420,1.5 µg/mL
same,MIC,Salmonella enteritidis,0.1 µg/mL
same,MIC,Serratia marcescens 1184,0.2 µg/mL
same,MIC,[3],≤ 0.01 µg/mL
same,MIC,Staphylococcus aureus 56,0.05 µg/mL
"C[C@@H](O)[C@H]1C(=O)N2C(C(=O)O)=C(SCC(=N)N3CCNC(=O)C3)[C@H](C)[C@H]12 [Compound No. 2, (1R,5S,6S)-2-[2-(3-Oxopiperazin-1-yl)-2-iminoethylthio]-6-[(1R)-1-hydroxyethyl]-1-methyl-1-carbapen-2-em-3-carboxylic acid]",MIC,Enterobacter cloacae 963,0.4 µg/mL
same,MIC,Escherichia coli 609,0.05 µg/mL
same,MIC,Escherichia coli NIHJ,0.02 µg/mL
same,MIC,[1],0.02 µg/mL
same,MIC,[2],0.05 µg/mL
same,MIC,Proteus vulgaris 1420,0.4 µg/mL
same,MIC,Salmonella enteritidis,0.05 µg/mL
same,MIC,Serratia marcescens 1184,0.1 µg/mL
same,MIC,[3],≤ 0.01 µg/mL
same,MIC,Staphylococcus aureus 56,0.05 µg/mL
"C[C@@H](O)[C@H]1C(=O)N2C(C(=O)O)=C(SCC(=N)N3CCN(C)C(=O)C3)C[C@H]12 [Compound No. 3, (5R,6S)-2-[2-(4-Methyl-3-oxopiperazin-1-yl)-2-iminoethylthio]-6-[(1R)-1-hydroxethyl]-1-carbapen-2-em-3-carboxylic acid]",dosage at which mice survive,mice; mice,"above 2,000 mg/kg"
"C[C@@H](O)[C@H]1C(=O)N2C(C(=O)O)=C(SCC(=N)N3CC[C@@H](OC(N)=O)C3)C[C@H]12 [Compound No. 15, (5R,6S)-2-{2-[(3R)-3-Carbamoyloxypyrrolidin-1-yl]-2-iminoethylthio}-6-[(1R)-1-hydroxyethyl]-1-carbapen-2-em-3-carboxylic acid]",MIC,Enterobacter cloacae 963,1.5 µg/mL
same,MIC,Escherichia coli 609,0.1 µg/mL
same,MIC,Escherichia coli NIHJ,0.1 µg/mL
same,MIC,[1],0.1 µg/mL
same,MIC,[2],0.05 µg/mL
same,MIC,Proteus vulgaris 1420,1.5 µg/mL
same,MIC,Serratia marcescens 1184,0.1 µg/mL
same,MIC,[3],≤ 0.01 µg/mL
same,MIC,Staphylococcus aureus 56,0.02 µg/mL
same,dosage at which mice survive,mice; mice,"above 2,000 mg/kg"
"C[C@@H](O)[C@H]1C(=O)N2C(C(=O)O)=C(SCC(=N)N3CC[C@@H](OC(N)=O)C3)[C@H](C)[C@H]12 [Compound No. 16, (1R,5S,6S)-2-{2-[(3R)-3-Carbamoyloxypyrrolidin-1-yl]-2-iminoethylthio}-6-[(1R)-1-hydroxyethyl]-1-methyl-1-carbapen-2-em-3-carboxylic acid]",MIC,Enterobacter cloacae 963,0.8 µg/mL
same,MIC,Escherichia coli 609,0.1 µg/mL
same,MIC,Escherichia coli NIHJ,0.05 µg/mL
same,MIC,[1],0.05 µg/mL
same,MIC,[2],0.1 µg/mL
same,MIC,Proteus vulgaris 1420,3.1 µg/mL
same,MIC,Serratia marcescens 1184,0.1 µg/mL
same,MIC,[3],≤ 0.01 µg/mL
same,MIC,Staphylococcus aureus 56,0.05 µg/mL
"C[C@@H](O)[C@H]1C(=O)N2C(C(=O)O)=C(SCC(=N)N3CCC(=NO)CC3)C[C@H]12 [Compound No. 27, (5R,6S)-2-[2-(4-Hydroxyiminopiperidin-1-yl)-2-iminoethylthio]-6-[(1R)-1-hydroxyethyl]-1-carbapen-2-em-3-carboxylic acid]",MIC,Enterobacter cloacae 963,0.8 µg/mL
same,MIC,Escherichia coli 609,0.1 µg/mL
same,MIC,Escherichia coli NIHJ,0.1 µg/mL
same,MIC,[1],0.1 µg/mL
same,MIC,[2],0.05 µg/mL
same,MIC,Proteus vulgaris 1420,0.8 µg/mL
same,MIC,Serratia marcescens 1184,0.1 µg/mL
same,MIC,[3],≤ 0.01 µg/mL
same,MIC,Staphylococcus aureus 56,0.02 µg/mL
same,dosage at which mice survive,"mice; mouse, in vivo","above 2,000 mg/kg"
"C[C@@H](O)[C@H]1C(=O)N2C(C(=O)O)=C(SCC(=N)N3CCC(=NO)CC3)[C@H](C)[C@H]12 [Compound No. 28, (1R,5S,6S)-2-[2-(4-Hydroxyiminopiperidin-1-yl)-2-iminoethylthio]-6-[(1R)-1-hydroxyethyl]-1-methyl-1-carbapen-2-em-3-carboxylic acid]",MIC,Enterobacter cloacae 963,0.4 µg/mL
same,MIC,Escherichia coli 609,0.1 µg/mL
same,MIC,Escherichia coli NIHJ,0.02 µg/mL
same,MIC,[1],0.05 µg/mL
same,MIC,[2],0.05 µg/mL
same,MIC,Proteus vulgaris 1420,1.5 µg/mL
same,MIC,Serratia marcescens 1184,0.1 µg/mL
same,MIC,[3],≤ 0.01 µg/mL
same,MIC,Staphylococcus aureus 56,0.05 µg/mL
"C[C@@H](O)[C@H]1C(=O)N2C(C(=O)O)=C(SCCN)C[C@H]12 [thienamycin, 2-(2-aminoethylthio)-6-(1-hydroxyethyl)carbapen-2-em-3-carboxylic acid]",inactivation by dehydropeptidase I,dehydropeptidase I,inactivated in vivo in mammals by dehydropeptidase I
same,chemical stability in the human body,[4],poor
